These results are taken from US8759331B2, “X-ray and gamma-photon activable organic compounds, their preparation and their uses” (Centre National de la Recherche Scientifique, priority 2010, dated 2014).

The nature of data set [1]: radiolysis under X-ray irradiation (17.5 keV), followed by HPLC. It is filed as physicochemical. The conditions noted are these: soft X-ray irradiation 17.5 keV. How it is done:
The radiolysis was followed either by the diminution of the caged compound 5, or by the increasing of the photo-products 6 and 7. […] The photo-fragmentation follows a first order kinetic with a time constant of 4.7×10^−3 min^−1.
The evolution of the radiolysis was followed by HPLC using C-18 reverse phase chromatography (XTerra, eluents: methanol/HCO2H (0.1% aq), H2O/HCO2H (0.1% aq) detection at 260 and 320 nm).

Data set [2] is described as follows: photolysis under one-photon (UV) irradiation at 366 nm, followed by HPLC/LC-MS. Type of data set: physicochemical. Conditions: 366 nm UV irradiation, physiological conditions / aqueous buffer pH 7. The method, then: The photochemical efficiency of any chromophores is determined by the extinction coefficient (ε) and the quantum yield (Qu) that is characteristic of the observed photochemical event of the chromophore. The product of these quantities (εQu) characterizes the efficiency of the event such as fluorescence or chemical transformation, for example by the incident light.
The photolysis at 366 nm of compound 5 was monitored by the disappearance of the caged hydrocinnamate 5 and by the appearance of the compounds 6 and 7, by using liquid chromatography (LC) or liquid-chromatography-mass spectrometry (LC-MS) techniques. […] In contrast, compound 4 was inert under UV irradiation at 366 nm.
Samples were prepared in c=0.1 mM concentration in aqueous TRIS buffer (pH=7). An aliquot (1 mL) of this solution was irradiated at 366 nm (ε366=3000 M^−1·cm^−1) in a 1 mL quartz cuvette. The evolution of the photolysis was followed by HPLC using C-18 reverse phase chromatography (XTerra, eluents: methanol/HCO2H (0.1% aq), H2O/HCO2H (0.1% aq) detection at 260 and 320 nm).

SMILES strings stand for the structures. Entries after “also recorded” stand apart in the source; their conditions may differ.

As for `O=C(CCc1ccccc1)OCc1ccc2ccc(N3CCNCC3)cc2n1` [compound 4], the “photo-fragmentation under X-ray irradiation” value in data set [1] is “no detectable photo-fragmentation; also recorded: no traces of photo-fragmentation”. In addition, the “photolysis under near UV irradiation (366 nm)” value in data set [2] is reported as “inert”.

As for `CC(C)(C)OC(=O)N1CCN(c2ccc3ccc(COC(=O)CCc4ccccc4)nc3c2)CC1` [compound 3], the “photo-fragmentation under X-ray irradiation” value in data set [1] is on record as “no detectable photo-fragmentation; also recorded: no traces of photo-fragmentation”. The “photolysis under near UV irradiation (366 nm)” value in data set [2] is given as “prone to photolysis”.
